Test results taken from ChEMBL document CHEMBL1201862, “PubChem BioAssay data set” (2004).
Counter-ions that a name gives are not always drawn. Active and inactive are the calls of the source.

Tests used:
[1] = target: Dual specificity protein phosphatase 6 (Rattus norvegicus, UniProt Q64346); experiment: MKP-3 phosphatase inhibitors, primary screen, biochemical, rat enzyme, in vitro (AID 425)
[2] = inhibitors of clade B AD8 Env fusion, dose response, cell-based, cherry-pick (AID 652062); assay type: functional;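 also: luciferase signal from cell-cell fusion driven by HIV-1 clade B AD8 Env; potency is for inhibitors of fusion seen as a drop in luminescence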
Bcl-2-related protein A1 [3] = target: T1, Bcl-2-related protein A1 (Mus musculus, UniProt Q07440); experiment: Bfl-1 inhibitors blocking BH3 peptide binding, confirmation, biochemical, TR-FRET, mouse Bfl-1 (AID 621);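 also: TR-FRET binding of GST-Bfl-1 to FITC-labelled Bid peptide via terbium antibody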
T1 sequence (Q07440 whole entry): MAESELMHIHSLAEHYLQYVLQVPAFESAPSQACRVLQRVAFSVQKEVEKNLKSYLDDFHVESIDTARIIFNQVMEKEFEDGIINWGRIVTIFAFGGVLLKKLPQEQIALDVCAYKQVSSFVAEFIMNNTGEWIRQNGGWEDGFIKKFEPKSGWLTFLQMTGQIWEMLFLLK

[4] = ZM109 Env clade C HIV-1 fusion inhibitors, dose response, HeLa effector, CEM target cells, luciferase, cherry-pick (AID 652058); assay type: functional, cell-based
[5] = CEM21 lymphoblast cell cytotoxicity, dose response, cytotoxicity control for viral fusion inhibitor project, CellTiter-Glo luminescence, cherry-picked (AID 652042); assay type: functional, cell-based;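 also: potency for signal decrease meaning cytotoxicity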
[6] = inhibitors of HIV Env-driven cell fusion, dose response, cherry-pick (AID 652057); assay type: functional, cell-based
Bcl-2-related protein A1 [7] = target: T1, Bcl-2-related protein A1; experiment: Bfl-1 inhibitors, primary screen, biochemical, fluorescence polarization, FITC-Bid, mouse (AID 432)
[8] = off-target signal loss in HeLa-CEM21 co-culture – HeLa F-luc CTL cells, cherry-picked, counter-screen for HIV-1 Env fusion inhibitor project, dose response (AID 652040); assay type: functional, cell-based;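 also: potency for signal decrease marking cytotoxic or nonspecific inhibition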
[9] = P. falciparum Dd2 growth inhibitors, dose response, SYBR Green, dry powder samples, set 9 (AID 1159568); assay type: functional, cell-based
[10] = P. falciparum Dd2 growth inhibitors, dose response, SYBR Green, cherry-picked samples (AID 1159567); assay type: functional, cell-based
[11] = Dose-response inhibition of insulin secretion in a rat insulinoma line at 5 mM glucose (AID 1117331); assay type: functional, cell-based; settings: INS-1E
cells [12] = assay type: functional, cell-based; settings: INS-1E
[13] = target: Bifunctional protein GlmU (Mycobacterium tuberculosis, UniProt P9WMN3); experiment: Inhibitors of Mycobacterial Glucosamine-1-phosphate acetyl transferase (GlmU). Secondary screen.; set-up: species or system Mycobacterium tuberculosis H37Rv
Chain of Bifunctional protein GlmU (P9WMN3 whole entry): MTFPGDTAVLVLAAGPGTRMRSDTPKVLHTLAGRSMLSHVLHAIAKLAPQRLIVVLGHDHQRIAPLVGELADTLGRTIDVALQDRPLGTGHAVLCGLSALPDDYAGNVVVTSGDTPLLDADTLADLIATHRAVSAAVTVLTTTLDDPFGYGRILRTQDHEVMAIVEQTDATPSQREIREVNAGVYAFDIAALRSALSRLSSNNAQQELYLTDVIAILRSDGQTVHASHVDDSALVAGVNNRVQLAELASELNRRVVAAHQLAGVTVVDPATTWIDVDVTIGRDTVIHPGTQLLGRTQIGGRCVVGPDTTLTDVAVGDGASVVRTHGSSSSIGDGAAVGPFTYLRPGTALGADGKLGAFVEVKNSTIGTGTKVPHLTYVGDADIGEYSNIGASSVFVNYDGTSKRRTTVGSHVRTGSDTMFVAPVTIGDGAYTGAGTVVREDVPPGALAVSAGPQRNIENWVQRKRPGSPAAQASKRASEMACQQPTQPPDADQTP

[14] = target: T2, Voltage-gated N-type calcium channel alpha-1B subunit/Amyloid beta A4 precursor protein-binding family A member 1 (Homo sapiens, UniProt Q00975+Q02410); assay type: protein assay
T2 sequence (Q00975 whole entry): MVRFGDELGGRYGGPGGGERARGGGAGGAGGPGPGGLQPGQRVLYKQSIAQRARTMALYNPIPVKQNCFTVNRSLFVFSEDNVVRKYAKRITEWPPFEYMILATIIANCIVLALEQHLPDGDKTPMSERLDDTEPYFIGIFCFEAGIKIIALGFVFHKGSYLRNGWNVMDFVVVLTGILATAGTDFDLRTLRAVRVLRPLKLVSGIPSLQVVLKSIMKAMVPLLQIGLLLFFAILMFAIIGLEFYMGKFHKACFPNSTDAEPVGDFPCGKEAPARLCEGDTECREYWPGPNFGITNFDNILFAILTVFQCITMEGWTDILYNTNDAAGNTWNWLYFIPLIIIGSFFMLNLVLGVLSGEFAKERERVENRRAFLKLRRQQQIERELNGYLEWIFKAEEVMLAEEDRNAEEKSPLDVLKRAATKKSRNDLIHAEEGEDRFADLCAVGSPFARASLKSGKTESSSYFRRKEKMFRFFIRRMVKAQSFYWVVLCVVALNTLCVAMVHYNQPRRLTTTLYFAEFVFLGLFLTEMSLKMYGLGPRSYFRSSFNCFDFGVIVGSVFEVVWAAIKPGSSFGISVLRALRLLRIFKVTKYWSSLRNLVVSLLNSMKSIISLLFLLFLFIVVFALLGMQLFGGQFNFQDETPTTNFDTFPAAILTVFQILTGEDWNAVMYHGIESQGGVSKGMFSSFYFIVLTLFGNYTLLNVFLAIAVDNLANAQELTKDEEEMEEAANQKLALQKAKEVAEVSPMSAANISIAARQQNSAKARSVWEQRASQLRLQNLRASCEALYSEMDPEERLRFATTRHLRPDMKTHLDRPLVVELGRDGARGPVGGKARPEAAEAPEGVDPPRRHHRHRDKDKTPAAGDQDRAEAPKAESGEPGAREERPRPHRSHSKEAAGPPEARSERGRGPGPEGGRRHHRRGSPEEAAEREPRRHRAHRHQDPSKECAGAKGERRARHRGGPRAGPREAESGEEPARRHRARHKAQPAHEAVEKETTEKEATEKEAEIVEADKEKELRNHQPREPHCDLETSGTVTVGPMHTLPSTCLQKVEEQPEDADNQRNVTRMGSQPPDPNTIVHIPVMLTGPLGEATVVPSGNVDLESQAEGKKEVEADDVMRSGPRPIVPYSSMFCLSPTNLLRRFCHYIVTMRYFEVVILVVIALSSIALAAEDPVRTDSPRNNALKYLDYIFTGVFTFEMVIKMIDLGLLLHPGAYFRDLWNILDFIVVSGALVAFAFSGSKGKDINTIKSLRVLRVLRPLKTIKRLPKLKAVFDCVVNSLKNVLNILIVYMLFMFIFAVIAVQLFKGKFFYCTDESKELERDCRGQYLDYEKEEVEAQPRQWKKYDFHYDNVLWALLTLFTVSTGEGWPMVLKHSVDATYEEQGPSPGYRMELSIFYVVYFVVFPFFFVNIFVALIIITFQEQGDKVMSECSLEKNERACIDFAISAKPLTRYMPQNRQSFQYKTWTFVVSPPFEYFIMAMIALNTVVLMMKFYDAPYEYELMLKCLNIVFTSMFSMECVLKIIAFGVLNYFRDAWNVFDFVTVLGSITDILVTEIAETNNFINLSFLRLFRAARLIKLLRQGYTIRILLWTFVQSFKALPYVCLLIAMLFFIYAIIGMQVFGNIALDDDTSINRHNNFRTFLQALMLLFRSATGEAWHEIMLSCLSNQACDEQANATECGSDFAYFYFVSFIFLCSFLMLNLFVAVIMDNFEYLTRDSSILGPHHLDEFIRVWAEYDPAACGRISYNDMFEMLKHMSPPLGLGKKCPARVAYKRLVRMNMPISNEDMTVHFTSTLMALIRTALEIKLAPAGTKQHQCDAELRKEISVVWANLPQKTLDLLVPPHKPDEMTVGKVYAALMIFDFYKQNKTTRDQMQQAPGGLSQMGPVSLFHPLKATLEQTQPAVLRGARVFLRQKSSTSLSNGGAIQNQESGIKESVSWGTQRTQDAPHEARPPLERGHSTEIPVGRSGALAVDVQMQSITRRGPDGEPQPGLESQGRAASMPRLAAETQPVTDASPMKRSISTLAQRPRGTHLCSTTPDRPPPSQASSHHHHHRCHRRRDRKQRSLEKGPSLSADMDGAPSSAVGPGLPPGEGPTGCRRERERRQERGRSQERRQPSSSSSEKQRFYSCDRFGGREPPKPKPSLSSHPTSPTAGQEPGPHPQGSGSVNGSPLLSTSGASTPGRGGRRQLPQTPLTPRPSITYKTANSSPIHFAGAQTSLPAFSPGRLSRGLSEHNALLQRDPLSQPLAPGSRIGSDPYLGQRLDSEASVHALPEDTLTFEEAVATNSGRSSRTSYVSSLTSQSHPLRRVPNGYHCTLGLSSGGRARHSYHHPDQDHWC
T2 sequence (Q02410 whole entry): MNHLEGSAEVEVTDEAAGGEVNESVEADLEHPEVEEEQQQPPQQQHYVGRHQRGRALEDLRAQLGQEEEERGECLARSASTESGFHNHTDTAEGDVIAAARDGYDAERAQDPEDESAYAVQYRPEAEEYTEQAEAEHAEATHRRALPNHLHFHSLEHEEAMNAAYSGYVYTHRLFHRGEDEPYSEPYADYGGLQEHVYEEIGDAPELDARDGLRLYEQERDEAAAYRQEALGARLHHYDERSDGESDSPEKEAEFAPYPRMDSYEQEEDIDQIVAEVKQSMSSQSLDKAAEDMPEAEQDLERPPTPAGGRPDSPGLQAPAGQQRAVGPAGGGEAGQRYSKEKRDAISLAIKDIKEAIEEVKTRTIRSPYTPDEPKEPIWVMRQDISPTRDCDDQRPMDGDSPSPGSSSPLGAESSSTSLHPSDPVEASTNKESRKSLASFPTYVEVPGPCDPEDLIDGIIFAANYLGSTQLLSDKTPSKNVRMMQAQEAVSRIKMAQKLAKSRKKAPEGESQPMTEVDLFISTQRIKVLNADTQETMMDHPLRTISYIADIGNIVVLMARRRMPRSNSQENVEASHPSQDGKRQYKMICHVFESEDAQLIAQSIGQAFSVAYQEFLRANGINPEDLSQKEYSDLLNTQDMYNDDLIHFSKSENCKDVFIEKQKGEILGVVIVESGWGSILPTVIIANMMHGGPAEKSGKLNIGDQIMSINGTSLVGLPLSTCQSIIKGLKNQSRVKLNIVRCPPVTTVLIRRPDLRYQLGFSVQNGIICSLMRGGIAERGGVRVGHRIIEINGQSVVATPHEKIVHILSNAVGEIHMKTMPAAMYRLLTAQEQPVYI

[15] = target: T2, Voltage-gated N-type calcium channel alpha-1B subunit/Amyloid beta A4 precursor protein-binding family A member 1; assay type: protein assay; remark: listed apart in the source
[16] = target: Glutathione-S-transferase (Schistosoma japonicum, UniProt Q26513); experiment: biotin-GST/anti-GST TR-FRET signal inhibitors, dose response, artefact control for Vif-APOBEC3G degradation inhibitor project, biochemical (AID 1117362); assay type: functional
Chain of Glutathione-S-transferase (Q26513 whole entry): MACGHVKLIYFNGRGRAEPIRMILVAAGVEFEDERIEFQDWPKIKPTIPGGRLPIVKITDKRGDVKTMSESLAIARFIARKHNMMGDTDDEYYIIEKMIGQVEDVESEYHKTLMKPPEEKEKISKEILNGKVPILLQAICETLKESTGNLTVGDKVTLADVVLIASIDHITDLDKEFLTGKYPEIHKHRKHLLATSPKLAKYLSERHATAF

[17] = target: Ubiquitin carboxyl-terminal hydrolase BAP1 (Homo sapiens, UniProt Q92560); experiment: BAP1 deubiquitinase inhibitors, dose response, biochemical (AID 714); assay type: functional
Chain of Ubiquitin carboxyl-terminal hydrolase BAP1 (Q92560 whole entry): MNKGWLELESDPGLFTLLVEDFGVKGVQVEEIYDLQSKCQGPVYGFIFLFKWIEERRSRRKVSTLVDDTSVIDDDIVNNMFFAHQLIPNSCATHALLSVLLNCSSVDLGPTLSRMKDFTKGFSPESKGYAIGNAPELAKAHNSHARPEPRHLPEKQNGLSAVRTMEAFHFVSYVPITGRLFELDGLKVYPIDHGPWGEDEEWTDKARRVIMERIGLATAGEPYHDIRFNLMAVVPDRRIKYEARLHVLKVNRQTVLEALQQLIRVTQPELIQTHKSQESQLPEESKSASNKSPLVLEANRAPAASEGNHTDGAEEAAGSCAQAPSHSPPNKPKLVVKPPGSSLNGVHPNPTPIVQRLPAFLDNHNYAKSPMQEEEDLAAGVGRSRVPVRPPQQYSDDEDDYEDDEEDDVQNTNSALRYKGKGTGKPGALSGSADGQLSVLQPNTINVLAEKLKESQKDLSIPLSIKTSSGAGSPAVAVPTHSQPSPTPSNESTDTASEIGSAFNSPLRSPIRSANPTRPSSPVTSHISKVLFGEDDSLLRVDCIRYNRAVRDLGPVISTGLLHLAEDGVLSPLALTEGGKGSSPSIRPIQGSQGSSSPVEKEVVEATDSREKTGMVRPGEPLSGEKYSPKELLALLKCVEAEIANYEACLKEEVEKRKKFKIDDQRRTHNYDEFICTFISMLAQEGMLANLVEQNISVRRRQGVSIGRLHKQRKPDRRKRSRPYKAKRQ

[18] = cytotoxicity in KRAS-transformed pancreatic duct cells, primary screen, cell-based, fluorescence, HTS (AID 431); assay type: functional; settings: Homo sapiens;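 also: cell line used: HPDE-C7K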
[19] = cytotoxicity in HPDE-C7 cells, cell-based, fluorescence, HTS (AID 430); assay type: functional; settings: Homo sapiens
[20] = growth suppression of PTEN-null colon cells, dose response, cell-based, HCT116 PTEN knockout (AID 1047); assay type: functional;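 also: HCT116 colon tumor cells with PTEN knocked out; cells exposed to compound for 60 hours before readout; potency for loss of cell viability measured by luminescence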
[21] = TRPM1 promoter luciferase reporter signal decrease, dose response, MITF inhibitor project, cell-based, SK-MEL-5, dry powder, set 9 (AID 651588); assay type: functional
INS1 = experiment: beta cell apoptosis inhibitors, cytokine rescue, dose response, luminescence, retest (AID 449756); assay type: functional, cell-based; settings: Rattus norvegicus;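 also: cell death triggered by IL-1 beta plus TNF-alpha plus IFN-gamma mixture; protective hits raise ATP signal compared with cytokine alone wells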
[22] = MITF Measured in Cell-Based System Using Plate Reader - 2084-01_Inhibitor_Dose_DryPowder_Activity_Set7.; assay type: functional
[23] = MITF Measured in Cell-Based System Using Plate Reader - 2084-01_Inhibitor_Dose_DryPowder_Activity_Set6.; assay type: functional
[24] = growth suppression of beta-catenin-knockout colon cells, dose response, cell-based, HCT116, human colon tumor (AID 1045); assay type: functional;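 also: HCT116 colon tumor cells with beta catenin knocked out; cells exposed to compound for 60 hours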
cells [25] = assay type: functional
[26] = system: Streptococcus sp. 'group A'; experiment: growth inhibition of control SK(-) GAS strain, dose response, counter-screen for streptokinase expression inhibitor project, luminescence, kanamycin, BacTiterGlo, confirmation (AID 1900); assay type: functional, organism-based
[27] = SK-MEL-5 parental cell viability reduction, dose response, orthogonal assay for MITF inhibitor project, CellTiter-Glo luminescence, dry powder, set 8 (AID 651586); assay type: functional, cell-based
[28] = MITF Orthogonal Assay: MALME3 CTG Assay Measured in Cell-Based System Using Plate Reader - 2084-04_Inhibitor_Dose_DryPowder_Activity_Set6.; assay type: functional; settings: MALME-3
[29] = HepG2 cell cytotoxicity, dose response, cytotoxicity control for non-replicating M. tuberculosis project (AID 489018); assay type: functional; settings: Mycobacterium tuberculosis
[30] = MITF Orthogonal Assay: SK-MEL-5 CTG Assay Measured in Cell-Based System Using Plate Reader - 2084-02_Inhibitor_Dose_DryPowder_Activity_Set5.; assay type: functional
[31] = A375 melanoma cell cytotoxicity, dose response, counter-screen for MITF inhibitor project, CellTiter-Glo luminescence, dry powder, set 2 (AID 624489); assay type: functional, cell-based; settings: A-375;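 also: actives are compounds lowering A375 viability meaning general cytotoxicity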
Streptokinase A = target: T3, Streptokinase A (Streptococcus pyogenes serotype M1, UniProt P10520); experiment: S. pyogenes streptokinase expression inhibitors, potency, dose response, plasminogen activation absorbance, OD405 (AID 1914); assay type: functional, Streptococcus pyogenes M1 GAS;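 also: secreted streptokinase activity via plasminogen activation per viability signal from cell pellet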
T3 sequence (P10520 whole entry): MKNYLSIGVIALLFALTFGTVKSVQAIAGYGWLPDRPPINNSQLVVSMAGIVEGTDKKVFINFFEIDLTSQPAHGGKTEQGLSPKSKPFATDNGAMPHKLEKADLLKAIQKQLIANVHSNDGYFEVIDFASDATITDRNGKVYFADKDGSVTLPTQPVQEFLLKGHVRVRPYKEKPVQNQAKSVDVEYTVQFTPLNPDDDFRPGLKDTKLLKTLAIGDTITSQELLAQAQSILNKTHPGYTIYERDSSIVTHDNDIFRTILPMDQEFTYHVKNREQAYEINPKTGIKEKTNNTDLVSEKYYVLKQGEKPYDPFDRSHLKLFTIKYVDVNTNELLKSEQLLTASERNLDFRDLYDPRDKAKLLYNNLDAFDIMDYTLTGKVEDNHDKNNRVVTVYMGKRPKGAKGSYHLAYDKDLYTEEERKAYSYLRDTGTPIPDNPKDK

[32] = A375 melanoma cell cytotoxicity, dose response, counter-screen for MITF inhibitor project, CellTiter-Glo luminescence, dry powder, set 7 (AID 624490); assay type: functional, cell-based; settings: A-375
[33] = THP-1 cell cytotoxicity, dose response, cytotoxicity control for non-replicating M. tuberculosis project (AID 489025); assay type: functional
[34] = A375 melanoma cell viability loss, dose response, counter-screen for MITF inhibitor project, CellTiter-Glo luminescence, dry powder, set 4 (AID 624364); assay type: functional, cell-based; settings: A-375;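 also: A375 melanoma cells are MITF independent so this is a counter screen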
[35] = SK-MEL-5 parental line viability, dose response, MITF inhibitor project, cell-based, CellTiter-Glo, dry powder, set 6 (AID 624429); assay type: functional
[36] = Vero E6 cell cytotoxicity, dose response, cytotoxicity control for non-replicating M. tuberculosis project, secondary assay (AID 492998); assay type: functional, VeroE6; settings: Vero C1008
[37] = A375 melanoma cell viability loss, dose response, counter-screen for MITF modulator project, CellTiter-Glo luminescence, dry powder, set 9 (AID 651591); assay type: functional, cell-based; settings: A-375
[38] = target: T4, Microphthalmia-associated transcription factor (Homo sapiens, UniProt O75030); experiment: TRPM1 promoter luciferase signal decrease, dose response, MITF inhibitor project, cell-based, SK-MEL-5, cherry-picked, set 3 (AID 493073); assay type: functional
T4 sequence (O75030 whole entry): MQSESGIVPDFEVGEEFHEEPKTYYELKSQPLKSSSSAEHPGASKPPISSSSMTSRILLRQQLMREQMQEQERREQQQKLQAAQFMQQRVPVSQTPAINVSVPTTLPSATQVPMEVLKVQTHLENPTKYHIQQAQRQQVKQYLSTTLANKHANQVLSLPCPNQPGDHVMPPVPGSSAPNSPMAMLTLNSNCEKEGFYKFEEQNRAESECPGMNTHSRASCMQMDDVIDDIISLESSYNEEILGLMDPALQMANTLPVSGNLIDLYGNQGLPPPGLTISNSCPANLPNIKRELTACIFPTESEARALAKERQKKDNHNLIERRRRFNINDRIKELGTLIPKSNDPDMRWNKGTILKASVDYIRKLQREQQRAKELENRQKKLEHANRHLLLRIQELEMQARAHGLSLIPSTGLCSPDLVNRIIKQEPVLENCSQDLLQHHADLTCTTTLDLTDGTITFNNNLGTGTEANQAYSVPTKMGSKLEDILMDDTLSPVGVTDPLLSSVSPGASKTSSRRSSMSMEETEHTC

[39] = MALME3 melanoma cell viability reduction, dose response, orthogonal assay for MITF inhibitor project, CellTiter-Glo luminescence, dry powder, set 5 (AID 651584); assay type: functional, cell-based; settings: MALME-3
Streptococcus = experiment: Group A Streptococcus viability loss, dose response, counter-screen for streptokinase expression inhibitor project, luminescence, BacTiterGlo (AID 1915); assay type: functional, organism-based;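 also: potency for reduction of bacterial viability or growth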
[40] = A375 melanoma cell cytotoxicity, dose response, counter-screen for MITF inhibitor project, CellTiter-Glo luminescence, dry powder, set 6 (AID 624488); assay type: functional, cell-based; settings: A-375

Chain of Dual specificity protein phosphatase 6 (Q64346 whole entry, the tested form may be a part): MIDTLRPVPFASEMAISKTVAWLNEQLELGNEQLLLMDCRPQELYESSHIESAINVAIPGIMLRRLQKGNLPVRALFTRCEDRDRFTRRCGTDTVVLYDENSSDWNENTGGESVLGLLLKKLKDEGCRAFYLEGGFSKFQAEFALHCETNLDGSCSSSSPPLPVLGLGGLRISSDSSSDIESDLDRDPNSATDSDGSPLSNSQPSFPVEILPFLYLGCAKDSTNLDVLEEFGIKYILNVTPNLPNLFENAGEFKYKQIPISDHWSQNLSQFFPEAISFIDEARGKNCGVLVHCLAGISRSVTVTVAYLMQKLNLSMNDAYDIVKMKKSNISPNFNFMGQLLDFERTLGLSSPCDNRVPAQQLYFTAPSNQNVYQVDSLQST

In the case of `Cc1ccc(-c2nn3c(C)nnc3s2)cc1NC(=O)c1ccc(-c2ccc(Cl)cc2Cl)o1`, the IC50 [1] is reported as > 10 µM (not active), the AC50 [2] is reported as 5.1 µM (active) and the IC50 (Bcl-2-related protein A1 [3]) is reported as > 100 µM (not active). For the same compound, the AC50 [4] was 4.6 µM (active), the AC50 [5] was 6.8 µM (active) and the AC50 [6] was 6.5 µM (active). For the same compound, the IC50 (Bcl-2-related protein A1 [7]) was > 100 µM (not active) and the AC50 [8] was 9.7 µM (active).

For `CN1C(=O)c2cc(NC(=O)c3cccc(F)c3)ccc2OC[C@H]2O[C@H](CC(=O)NCC3CCCCC3)CC[C@H]21`, the AC50 [9] was 8.12 µM (active) and the AC50 [10] was 8.99 µM (active).

With `CCN(CC)CCCN(c1ccccc1)C1Cc2ccccc2C1` [APRINDINE HYDROCHLORIDE] the IC50 [11] was 7.13 µM (inactive) and the IC50 (cells [12]) was > 33.3 µM (inactive).

In the case of `N=C1/C(=C\c2ccc(-c3ccc(C(=O)O)cc3)o2)C(=O)N=C2SC=C(c3ccccc3)N12`, the IC50 [13] is reported as 182 µM (active), the IC50 [14] is reported as 29.2 µM (active) and the IC50 [15] is reported as 4.12 µM (active).

In the case of `O=[N+]([O-])c1ccc(-c2ccc(/C=N/c3c(-c4ccco4)nc4ccccn34)o2)cc1`, the IC50 [16] is reported as 50.3 µM (active).

In the case of `Cc1sc(NC(=O)CSc2nnc3scc(-c4ccccc4)n23)c(C#N)c1C`, the IC50 [17] is reported as > 50 µM (not active), the EC50 [18] is reported as 8.96 µM (active) and the EC50 [19] is reported as 8.93 µM (active).

With `Cc1nc2ccccc2n1/N=C/c1ccc([N+](=O)[O-])s1` the EC50 [20] was 3.72 µM (active), the AC50 [21] was 7.21 µM (active) and the AC50 (INS1) was 2.01 µM (active). For the same compound, the AC50 [22] was 1.1 µM (active), the AC50 [23] was 2.52 µM (active) and the EC50 [24] was 2.47 µM (active). For the same compound, the IC50 (cells [25]) was 0.43 µM (active), the EC50 [26] was 3.63 µM (active) and the AC50 [27] was > 70 µM (inactive). The AC50 [28] was 22.9 µM (active), the CC50 [29] was 12.4 µM (active) and the AC50 [30] was 6.24 µM (active). For the same compound, the AC50 [31] was > 70 µM (inactive), the EC50 (Streptokinase A) was > 150 µM (not active) and the AC50 [32] was > 70 µM (inactive). For the same compound, the CC50 [33] was 5.13 µM (active), the AC50 [34] was > 70 µM (inactive) and the AC50 [35] was 10.7 µM (active). The CC50 [36] was 9.87 µM (active), the AC50 [37] was > 70 µM (inactive) and the AC50 [38] was 3.51 µM (active). The AC50 [39] was 22.9 µM (active), the EC50 (Streptococcus) was 10.7 µM (active) and the AC50 [40] was 47.3 µM (active).
